Some test systems named below: SF-268 CNS; DU-145 prostate; A498 renal; ACHN renal; UACC-62 melanoma; PC-3 prostate; MCF7 breast; SW-620 colon; NCI-H522 lung; HOP-62 NSCLC.
What all share (test): inhibition of tumour cell growth, NCI panel, 48 h

The structures appear in SMILES notation.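 How tested: cells in 96-well plates exposed to compound for 48 hours at five concentrations. At the GI50, growth is halved. TGI: concentration producing complete growth inhibition.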

For `COc1ccc(C(=O)N/N=C/c2ccc(O)cc2O)cc1Nc1ccnc(C(F)(F)F)c1`, the GI50 with SF-268 CNS is 0.299 µM; with DU-145 prostate, 0.622 µM; in the experiment on A498 renal, 0.193 µM; in the experiment on ACHN renal it was 1.54 µM; with UACC-62 melanoma it was 0.448 µM; in the experiment with PC-3 prostate, 0.771 µM. Besides, the GI50 was 1.57 µM in the experiment on MCF7 breast, 1.16 µM in the experiment with SW-620 colon, 3.22 µM in the experiment with NCI-H522 lung and 0.495 µM with HOP-62 NSCLC. In addition, the TGI with SF-268 CNS came to 16.7 µM; in the experiment on DU-145 prostate, 15.2 µM; with A498 renal, 9.33 µM; in the experiment on ACHN renal, 35.8 µM; with UACC-62 melanoma it was 11.4 µM; in the experiment with PC-3 prostate it was 24.6 µM. Also, the TGI with MCF7 breast amounted to 16.5 µM; with SW-620 colon, 24.2 µM; in the experiment with NCI-H522 lung it was 27.3 µM; in the experiment with HOP-62 NSCLC, 12.7 µM.
In the case of `C[C@@]12CCC[C@@](C)(C(=O)O)C1CC[C@@]13CC(=O)[C@@](CO)(CCC12)C3` (stereo not given in full), the GI50 in the experiment on SF-268 CNS, in the experiment with DU-145 prostate, in the experiment with A498 renal, with ACHN renal, with UACC-62 melanoma and with PC-3 prostate was above 100 µM each time. In addition, the GI50 in the experiment on MCF7 breast, in the experiment on SW-620 colon, with NCI-H522 lung and in the experiment with HOP-62 NSCLC was above 100 µM each time. Moreover, the TGI in the experiment on SF-268 CNS, in the experiment with DU-145 prostate, in the experiment on A498 renal, with ACHN renal, with UACC-62 melanoma and in the experiment with PC-3 prostate was above 100 µM in each case. In addition, the TGI in the experiment on MCF7 breast, in the experiment on SW-620 colon, in the experiment with NCI-H522 lung and in the experiment with HOP-62 NSCLC was above 100 µM each time.
Turning to `C=C1CO[C@@H]2C[C@@H]1CCC1(C)OC1CC/C(C)=C/CC[C@@]2(C)O` (stereo not given in full), the GI50 is 48.6 µM with SF-268 CNS; 16.1 µM with DU-145 prostate; above 79.1 µM in the experiment on A498 renal; 16.7 µM in the experiment with ACHN renal; 28.2 µM in the experiment with UACC-62 melanoma; 18.5 µM with PC-3 prostate. Also, the GI50 was 24.7 µM in the experiment with MCF7 breast, 15.8 µM in the experiment on SW-620 colon, 30.5 µM with NCI-H522 lung and above 58.2 µM with HOP-62 NSCLC. In addition, the TGI was above 100 µM with SF-268 CNS; 31.2 µM in the experiment on DU-145 prostate; above 100 µM in the experiment on A498 renal; 31.4 µM in the experiment with ACHN renal; above 71.2 µM in the experiment with UACC-62 melanoma; 36.9 µM in the experiment on PC-3 prostate. The TGI with MCF7 breast is above 60.6 µM; with SW-620 colon it was 38.4 µM; in the experiment on NCI-H522 lung, above 76.9 µM; in the experiment on HOP-62 NSCLC, above 100 µM.
For the compound `Cc1nc2ccc(NCCN(C)C)c3c(=O)c4cc(O)ccc4n1c23`, the TGI with SF-268 CNS was 5.43 µM; in the experiment on DU-145 prostate it was 4.93 µM; in the experiment with A498 renal, 4.93 µM; with ACHN renal it was 1.94 µM; with UACC-62 melanoma, 5.63 µM; in the experiment with PC-3 prostate, 4.86 µM. In addition, the TGI in the experiment with MCF7 breast was 11.5 µM; in the experiment on SW-620 colon it was 4.53 µM; in the experiment with NCI-H522 lung it was 1.98 µM; in the experiment with HOP-62 NSCLC, 11.1 µM.
Consider `COC(=O)c1cc2c(cc1Cl)SC(N(N(C)C)S(=O)(=O)c1ccc(Cl)cc1)=NS2(=O)=O`, for which the GI50 in the experiment on SF-268 CNS is 20.1 µM; in the experiment on DU-145 prostate, 13.7 µM; in the experiment on A498 renal it was 15.1 µM; with ACHN renal, 17.8 µM; with UACC-62 melanoma it was 17 µM; in the experiment on PC-3 prostate, 7.63 µM. The GI50 with MCF7 breast was 17 µM; in the experiment on SW-620 colon, 14.3 µM; in the experiment on NCI-H522 lung, 12.4 µM; in the experiment with HOP-62 NSCLC, 19.6 µM. Further, the TGI with SF-268 CNS came out at 45.5 µM; in the experiment on DU-145 prostate it was 26.6 µM; with A498 renal it was 30.1 µM; in the experiment on ACHN renal, 38.5 µM; in the experiment on UACC-62 melanoma, 35.6 µM; in the experiment with PC-3 prostate it was 20.5 µM. Moreover, the TGI stood at 34.8 µM in the experiment with MCF7 breast, 27.4 µM with SW-620 colon, 30.2 µM in the experiment with NCI-H522 lung and 48.7 µM with HOP-62 NSCLC.
As for `CC(C)[C@@H](CS(=O)(=O)C(C)C)N1C(=O)[C@@](C)(CC(=O)O)C[C@H](c2cccc(Cl)c2)[C@H]1c1ccc(Cl)cc1`, the GI50 with SF-268 CNS is 20.8 µM; in the experiment on DU-145 prostate, 21.8 µM; with A498 renal it was 0.537 µM; with ACHN renal, 0.394 µM; in the experiment on UACC-62 melanoma it was 0.333 µM; in the experiment with PC-3 prostate it was 5.75 µM. The GI50 is 0.282 µM in the experiment with MCF7 breast, 25.5 µM with SW-620 colon, 17.8 µM in the experiment on NCI-H522 lung and 17.2 µM in the experiment with HOP-62 NSCLC. Besides, the TGI with SF-268 CNS was above 100 µM; in the experiment on DU-145 prostate, above 100 µM; in the experiment with A498 renal, 16.8 µM; in the experiment with ACHN renal, 15.4 µM; in the experiment on UACC-62 melanoma, 11.3 µM; in the experiment on PC-3 prostate, above 69.3 µM. Moreover, the TGI with MCF7 breast is 3.52 µM; in the experiment on SW-620 colon, above 100 µM; in the experiment with NCI-H522 lung, 51.5 µM; in the experiment on HOP-62 NSCLC it was 56.7 µM.

For the origin of these results see PubChem BioAssay (NCI).
